In the supplement of paper PMC10307832:

Legend:
Assay in all cases: relative viability (nuclei count vs DMSO), 5 days (fraction); higher = more cells survive
Seliciclib + Pictilisib = compound: CC[C@H](CO)Nc1nc(NCc2ccccc2)c2ncn(C(C)C)c2n1 [Seliciclib] + CS(=O)(=O)N1CCN(Cc2cc3nc(-c4cccc5[nH]ncc45)nc(N4CCOCC4)c3s2)CC1 [Pictilisib] (partner 1 µM)
Outline: (§1)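 Lung cancer cell lines were pin-tool dosed in 1536-well plates on the day after seeding, with either a lone drug or a fixed anchor-drug dose plus five library-drug doses (not always all listed) in √10 steps. Nuclei were counted on 4× images after 5 days. Relative viability is the ratio of treated-well to vehicle-well nuclei counts, with each value a median of duplicate plates.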

Seliciclib + Crizotinib = compound: CC[C@H](CO)Nc1nc(NCc2ccccc2)c2ncn(C(C)C)c2n1 [Seliciclib] + C[C@@H](Oc1cc(-c2cnn(C3CCNCC3)c2)cnc1N)c1c(Cl)ccc(F)c1Cl [Crizotinib] (partner 1 µM)
Outline: as §1

Seliciclib + Alpelisib = compound: CC[C@H](CO)Nc1nc(NCc2ccccc2)c2ncn(C(C)C)c2n1 [Seliciclib] + Cc1nc(NC(=O)N2CCC[C@H]2C(N)=O)sc1-c1ccnc(C(C)(C)C(F)(F)F)c1 [Alpelisib] (partner 2 µM)
Outline: as §1

Seliciclib + Lapatinib = compound: CC[C@H](CO)Nc1nc(NCc2ccccc2)c2ncn(C(C)C)c2n1 [Seliciclib] + CS(=O)(=O)CCNCc1ccc(-c2ccc3ncnc(Nc4ccc(OCc5cccc(F)c5)c(Cl)c4)c3c2)o1 [Lapatinib] (partner 2 µM)
Outline: as §1

Seliciclib + Bortezomib = compound: CC[C@H](CO)Nc1nc(NCc2ccccc2)c2ncn(C(C)C)c2n1 [Seliciclib] + CC(C)C[C@H](NC(=O)[C@H](Cc1ccccc1)NC(=O)c1cnccn1)B(O)O [Bortezomib] (partner 0.002 µM)
Outline: as §1

Seliciclib + Olaparib = compound: CC[C@H](CO)Nc1nc(NCc2ccccc2)c2ncn(C(C)C)c2n1 [Seliciclib] + O=C(c1cc(Cc2n[nH]c(=O)c3ccccc23)ccc1F)N1CCN(C(=O)C2CC2)CC1 [Olaparib] (partner 8 µM)
Outline: as §1

Seliciclib + Navitoclax = compound: CC[C@H](CO)Nc1nc(NCc2ccccc2)c2ncn(C(C)C)c2n1 [Seliciclib] + CC1(C)CCC(c2ccc(Cl)cc2)=C(CN2CCN(c3ccc(C(=O)NS(=O)(=O)c4ccc(N[C@H](CCN5CCOCC5)CSc5ccccc5)c(S(=O)(=O)C(F)(F)F)c4)cc3)CC2)C1 [Navitoclax] (partner 0.5 µM)
Outline: as §1

Seliciclib + Foretinib = compound: CC[C@H](CO)Nc1nc(NCc2ccccc2)c2ncn(C(C)C)c2n1 [Seliciclib] + COc1cc2c(Oc3ccc(NC(=O)C4(C(=O)Nc5ccc(F)cc5)CC4)cc3F)ccnc2cc1OCCCN1CCOCC1 [Foretinib] (partner 0.25 µM)
Outline: as §1

Seliciclib + Linsitinib = compound: CC[C@H](CO)Nc1nc(NCc2ccccc2)c2ncn(C(C)C)c2n1 [Seliciclib] + C[C@]1(O)C[C@@H](c2nc(-c3ccc4ccc(-c5ccccc5)nc4c3)c3c(N)nccn32)C1 [Linsitinib] (partner 1 µM)
Outline: as §1

Seliciclib = compound: CC[C@H](CO)Nc1nc(NCc2ccccc2)c2ncn(C(C)C)c2n1 [Seliciclib]
Outline: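 A plate was accepted only when its control CV was below 25% and the cells had doubled at least once. Viability is defined from nuclear counts as treated wells divided by vehicle wells, with the median taken across plates. That median covers lung cancer cell lines grown in 1536-well plates, dosed by pinning at five √10-spaced library-drug concentrations, and counted in MetaXpress from 4× Hoechst images after 5 days.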

EBC-1 showed a relative viability (Seliciclib + Pictilisib; first compound 0.08 µM) of 0.449, a relative viability (Seliciclib + Pictilisib; first compound 0.253 µM) of 0.407 and a relative viability (Seliciclib + Pictilisib; first compound 0.8 µM) of 0.387. The relative viability (Seliciclib + Pictilisib; first compound 2.53 µM) was 0.354, the relative viability (Seliciclib + Pictilisib; first compound 8 µM) was 0.343 and the relative viability (Seliciclib + Crizotinib; first compound 0.08 µM) was 0.199. The relative viability (Seliciclib + Crizotinib; first compound 0.253 µM) was 0.226, the relative viability (Seliciclib + Crizotinib; first compound 0.8 µM) was 0.199 and the relative viability (Seliciclib + Crizotinib; first compound 2.53 µM) was 0.201. It also gave a relative viability (Seliciclib + Crizotinib; first compound 8 µM) of 0.213, a relative viability (Seliciclib + Alpelisib; first compound 0.08 µM) of 0.901 and a relative viability (Seliciclib + Alpelisib; first compound 0.253 µM) of 0.88. For the same cell line, the relative viability (Seliciclib + Alpelisib; first compound 0.8 µM) was 0.895, the relative viability (Seliciclib + Alpelisib; first compound 2.53 µM) was 0.828 and the relative viability (Seliciclib + Alpelisib; first compound 8 µM) was 0.616. For the same cell line, the relative viability (Seliciclib + Lapatinib; first compound 0.08 µM) was 0.25, the relative viability (Seliciclib + Lapatinib; first compound 0.253 µM) was 0.225 and the relative viability (Seliciclib + Lapatinib; first compound 0.8 µM) was 0.251. The relative viability (Seliciclib + Lapatinib; first compound 2.53 µM) was 0.23, the relative viability (Seliciclib + Lapatinib; first compound 8 µM) was 0.227 and the relative viability (Seliciclib + Bortezomib; first compound 0.08 µM) was 0.554. The relative viability (Seliciclib + Bortezomib; first compound 0.253 µM) was 0.553, the relative viability (Seliciclib + Bortezomib; first compound 0.8 µM) was 0.623 and the relative viability (Seliciclib + Bortezomib; first compound 2.53 µM) was 0.466. For the same cell line, the relative viability (Seliciclib + Bortezomib; first compound 8 µM) was 0.379, the relative viability (Seliciclib + Olaparib; first compound 0.08 µM) was 0.712 and the relative viability (Seliciclib + Olaparib; first compound 0.253 µM) was 0.651. For the same cell line, the relative viability (Seliciclib + Olaparib; first compound 0.8 µM) was 0.734, the relative viability (Seliciclib + Olaparib; first compound 2.53 µM) was 0.665 and the relative viability (Seliciclib + Olaparib; first compound 8 µM) was 0.461. It also gave a relative viability (Seliciclib + Navitoclax; first compound 0.08 µM) of 0.447, a relative viability (Seliciclib + Navitoclax; first compound 0.253 µM) of 0.417 and a relative viability (Seliciclib + Navitoclax; first compound 0.8 µM) of 0.402. It also gave a relative viability (Seliciclib + Navitoclax; first compound 2.53 µM) of 0.333, a relative viability (Seliciclib + Navitoclax; first compound 8 µM) of 0.231 and a relative viability (Seliciclib + Foretinib; first compound 0.08 µM) of 0.124. For the same cell line, the relative viability (Seliciclib + Foretinib; first compound 0.253 µM) was 0.103, the relative viability (Seliciclib + Foretinib; first compound 0.8 µM) was 0.105 and the relative viability (Seliciclib + Foretinib; first compound 2.53 µM) was 0.125. It also gave a relative viability (Seliciclib + Foretinib; first compound 8 µM) of 0.108, a relative viability (Seliciclib + Linsitinib; first compound 0.08 µM) of 0.911 and a relative viability (Seliciclib + Linsitinib; first compound 0.253 µM) of 0.836. For the same cell line, the relative viability (Seliciclib + Linsitinib; first compound 0.8 µM) was 0.942, the relative viability (Seliciclib + Linsitinib; first compound 2.53 µM) was 0.88 and the relative viability (Seliciclib + Linsitinib; first compound 8 µM) was 0.794. For the same cell line, the relative viability (Seliciclib; 0.08 µM) was 0.945, the relative viability (Seliciclib; 0.253 µM) was 0.84 and the relative viability (Seliciclib; 0.8 µM) was 1.06. For the same cell line, the relative viability (Seliciclib; 2.53 µM) was 0.985 and the relative viability (Seliciclib; 8 µM) was 0.663.

NCI-H1299 was tested, and the relative viability (Seliciclib + Pictilisib; first compound 0.08 µM) was 0.792, the relative viability (Seliciclib + Pictilisib; first compound 0.253 µM) was 0.765 and the relative viability (Seliciclib + Pictilisib; first compound 0.8 µM) was 0.72. It also gave a relative viability (Seliciclib + Pictilisib; first compound 2.53 µM) of 0.841, a relative viability (Seliciclib + Pictilisib; first compound 8 µM) of 0.656 and a relative viability (Seliciclib + Crizotinib; first compound 0.08 µM) of 0.983. The relative viability (Seliciclib + Crizotinib; first compound 0.253 µM) was 1.07, the relative viability (Seliciclib + Crizotinib; first compound 0.8 µM) was 0.935 and the relative viability (Seliciclib + Crizotinib; first compound 2.53 µM) was 0.993. The relative viability (Seliciclib + Crizotinib; first compound 8 µM) was 0.943, the relative viability (Seliciclib + Alpelisib; first compound 0.08 µM) was 1.02 and the relative viability (Seliciclib + Alpelisib; first compound 0.253 µM) was 1.17. It also gave a relative viability (Seliciclib + Alpelisib; first compound 0.8 µM) of 1.1, a relative viability (Seliciclib + Alpelisib; first compound 2.53 µM) of 1.08 and a relative viability (Seliciclib + Alpelisib; first compound 8 µM) of 0.986. It also gave a relative viability (Seliciclib + Lapatinib; first compound 0.08 µM) of 0.953, a relative viability (Seliciclib + Lapatinib; first compound 0.253 µM) of 1.06 and a relative viability (Seliciclib + Lapatinib; first compound 0.8 µM) of 0.997. For the same cell line, the relative viability (Seliciclib + Lapatinib; first compound 2.53 µM) was 0.962, the relative viability (Seliciclib + Lapatinib; first compound 8 µM) was 0.948 and the relative viability (Seliciclib + Bortezomib; first compound 0.08 µM) was 0.995. For the same cell line, the relative viability (Seliciclib + Bortezomib; first compound 0.253 µM) was 1.1, the relative viability (Seliciclib + Bortezomib; first compound 0.8 µM) was 0.985 and the relative viability (Seliciclib + Bortezomib; first compound 2.53 µM) was 1.04. It also gave a relative viability (Seliciclib + Bortezomib; first compound 8 µM) of 0.992, a relative viability (Seliciclib + Olaparib; first compound 0.08 µM) of 0.967 and a relative viability (Seliciclib + Olaparib; first compound 0.253 µM) of 1.08. For the same cell line, the relative viability (Seliciclib + Olaparib; first compound 0.8 µM) was 0.957, the relative viability (Seliciclib + Olaparib; first compound 2.53 µM) was 0.949 and the relative viability (Seliciclib + Olaparib; first compound 8 µM) was 0.954. For the same cell line, the relative viability (Seliciclib + Navitoclax; first compound 0.08 µM) was 0.996, the relative viability (Seliciclib + Navitoclax; first compound 0.253 µM) was 1.14 and the relative viability (Seliciclib + Navitoclax; first compound 0.8 µM) was 1.02. The relative viability (Seliciclib + Navitoclax; first compound 2.53 µM) was 1.03, the relative viability (Seliciclib + Navitoclax; first compound 8 µM) was 1 and the relative viability (Seliciclib + Foretinib; first compound 0.08 µM) was 1.11. It also gave a relative viability (Seliciclib + Foretinib; first compound 0.253 µM) of 1.2, a relative viability (Seliciclib + Foretinib; first compound 0.8 µM) of 1.08 and a relative viability (Seliciclib + Foretinib; first compound 2.53 µM) of 1.07. It also gave a relative viability (Seliciclib + Foretinib; first compound 8 µM) of 1.09, a relative viability (Seliciclib + Linsitinib; first compound 0.08 µM) of 0.981 and a relative viability (Seliciclib + Linsitinib; first compound 0.253 µM) of 1.14. For the same cell line, the relative viability (Seliciclib + Linsitinib; first compound 0.8 µM) was 1.09, the relative viability (Seliciclib + Linsitinib; first compound 2.53 µM) was 0.956 and the relative viability (Seliciclib + Linsitinib; first compound 8 µM) was 1. For the same cell line, the relative viability (Seliciclib; 0.08 µM) was 0.959, the relative viability (Seliciclib; 0.253 µM) was 1.12 and the relative viability (Seliciclib; 0.8 µM) was 1.03. The relative viability (Seliciclib; 2.53 µM) was 1.02 and the relative viability (Seliciclib; 8 µM) was 1.03.
